From US6521593B1, “Methods for inhibiting brain tumor growth” (Childrens Hospital Los Angeles, priority 1999, dated 2003) come the findings set out here.

SMILES strings stand for the structures.

In assay [1] the test system is DAOY cells. The assay is described as follows: Vitronectin migration (Boyden chamber), DAOY. It is filed as cell-based, human. As to conditions: test substance 20 μg/ml, 4 hrs. As to the method: (§1) Migration: Transwell polycarbonate filters (8 μm pore size) were incubated for 30 min. at 37° C. with vitronectin in PBS (1 μg/ml on the upper side and 10 μg on the bottom side), blocked for 30 min. with 1% heat denatured BSA and washed with PBS. Test cells (5×10^5/well) were added in adhesion buffer containing the test substances indicated (20 μg/ml) and incubated for 4 hrs at 37° C. with the lower chamber containing adhesion buffer. Cells in the upper chamber were removed with a cotton swab and cells on the bottom part of the filter were fixed and stained with crystal violet and the number of migrated cells determined by counting.
(§2) To address whether αvβ3 and αvβ5 modulate migration on vitronectin, independent of adhestion, we tested the same cells on vitronectin-coated membranes in Boyden chambers while in the presence of blocking antibodies or cRGD. […] Since LM-609, in the absence of P1-F6, was incapable of blocking adhesion, this anti-migratory effect must be mediated through a distinct pathway which is independent of forces responsible for adhesion.

Assay [2] concerns human brain endothelial cells (HBEC). The assay is described as follows: Vitronectin migration (Boyden chamber), HBEC. It is filed as cell-based. To be noted: test substance 20 μg/ml, 4 hrs. As to the method: as §1, §2
Assay [3] deals with U87 glioblastoma cells. Nature of the assay: Apoptosis of cells grown on ECM (FIG. 8), U87. To be noted: 20 μg/ml, 24 hours. It is filed as cell-based, human. As to the method:
(§3) Non tissue culture dishes were incubated 1 hour at 37° C. with vitronectin, tenascin, fibronectin or collagen I (10 μg/ml), then washed with PBS. After the wash, 5×10^5 cells /well were plated and incubated for 16 hours at 37° C. The cultures were then washed and an adhesion buffer containing 20 μg/ml of pentapeptide or control peptide were added and incubated for an additional 2-24 hours. The cultures were then washed twice with adhesion buffer and stained with Crystal violet and the OD 600 determined. The more adherent cells are present, the higher the OD. Data represent adherent cells after 8-hour incubation. U87=glioblastoma and DAOY=medulloblastoma.
Test conditions were as in FIG. 7, except that detached cells and adherent cells were combined after trypsinisation. The cells were then washed, suspended in 50 μl PBS and centrifuged in glass cover slides (cytospin). After fixation with 4% paraformaldehyde, the cells were stained for apoptosis using the Boehringer Apoptosis Kit. Results are expressed in a percentage of apoptotic cells versus total number of cells. Experiment was done after 24 hours of incubation with the peptides.

The subject of assay [4] is M21L αv neg melanoma cells. Nature of the assay: Survival of nude mice with αv-negative melanoma cells implanted into the brain. It is filed as in vivo. As to conditions: 10^6 cells into forebrain of nude mice. From the text:
Mice were sacrificed when becoming cachectic and the presence of tumor was verified by autopsy.

Assay [5] relates to U87MG cells. Nature of the assay: Heterotopic (subcutaneous) tumor model, U87MG cells in nude mice.
Protocol: (§4) Subcutaneous tumor growth: For subcutaneous tumor growth, the cells (10^6 mouse) were injected s.c. below the right shoulder pad immediately following intracerebral injection.
(§5) To further investigate this finding, we simultaneously injected the DAOY and U87MG cells intracranially and subcutaneously before initiating treatment with the peptides as outlined under the orthotopic model.
Assay [6] relates to DAOY cells. The assay is described as follows: Heterotopic (subcutaneous) tumor model, DAOY cells in nude mice.
Protocol: as §4, §5
Assay [7] concerns U87MG cells. The assay is described as follows: Vitronectin adhesion, U87MG. It is filed as cell-based, human. As to conditions: test substance 20 μg/ml. As to the method: Adhesion: Assay conditions were as previously described (15). Non-tissue culture treated wells incubated overnight at 4° C. with vitronectin (1-10 μg/ml PBS), washed and blocked for 30 min. with heat denatured 1% BSA in PBS, followed by washing with PBS. Control and test cells, pre-incubated at 37° C. with the test substance (20 μg/ml) in adhesion buffer for 30 min. were plated into wells (5×10^4 cells/well) and incubated for 1 hr at 37° C. After gentle washing of the wells with adhesion buffer, adhering cells were fixed and stained with crystal violet, the dye solubilized in methanol and the OD determined at […].
To determine if αvβ3 and αvβ5 regulate DAOY, U87MG and HBEC adhesion to vitronecin, the cells were plated in vitronectin-coated wells and allowed to adhere in the presence or absence of either blocking antibodies to αvβ3 (LM-609) and αvβ5 (P1-F6) or the cRGD peptide.

The test system of assay [8] is primary HBEC. The assay is described as follows: Apoptosis on vitronectin (Annexin V-FITC FACS), HBEC. It is filed as cell-based, human. To be noted: 20 μg/ml, 4 hrs. As to the method:
Apoptosis: Adhesion conditions were as above, except that 12 well plates covered with vitronectin and 5×10^5 cells/well were plated in adhesion buffer. […] Attached cells were trypsinized and combined with the detached cells in the supernatant and then examined for the presence of apoptotic cells using the Apo Alert Annexin V-FITC apoptosis kit (Clontech).
FIGS. 6a-6d show the integrin profile (a), effect of αv-antagonist on adhesion to (b), migration on (c) and cell viability on vitronectin (d) for brain tumor and brain capillary endothelial cells. Both DAOY and U87MG tumor cells and brain capillary cells express the integrins αvβ3 and αvβ5 (a). […] Cell viability was tested by letting the cells attach to vitronectin for 1 hour, and then exposing them for 4 hours to the control peptide or αv-antagonist (20 μg/ml) (d). Adherent and floating cells were combined and examined by FACS for apoptosis, using FITC labeled anti-annexin V and propidium iodide.
We have previously shown that pre-incubation of brain tumor or capillary cells with the cRGD peptide, or the combination of anti-αvβ3 and anti-αvβ5 antibodies, prevents cell adhesion to vitronectin. […] Attached cells were combined after trypsinization with floating cells and the number of apoptotic cells was determined by FACS, using anti-annexin V-FITC antibody and propidium iodide (Clontech Apo alert Annexin V-FITC detection apoptosis kit).

The subject of assay [9] is U87 glioblastoma cells. Nature of the assay: Tumor cell adhesion to ECM proteins (FIG. 7), U87. It is filed as cell-based, human. As to conditions: U87 on vitronectin and tenascin, 20 μg/ml, 8-hour incubation. As to the method: as §3

As for `CC(C)[C@H]1C(=O)N[C@@H](CCCN=C(N)N)C(=O)NCC(=O)N[C@@H](CC(=O)O)C(=O)N[C@H](Cc2ccccc2)C(=O)N1C` [EMD 121974, cyclo(Arg-Gly-Asp-D-Phe-[N-Me]-Val)], the migration on vitronectin entry in assay [1] and in assay [2] was “significantly inhibited” throughout. The “cell survival / apoptotic cells” value in [3] (U87 grown on collagen I or fibronectin) is recorded as “did not alter the survival”; in [3] (U87 grown on vitronectin or tenascin), “increased number of dead cells”. Further, the “Survival” value in assay [4] (100 μg/mouse/day from day 3) was 15.7 ± 3.8 days; in assay [4] (100 μg/mouse/day from day 3, listed as active pentapeptide), 15 days. For the same compound, the “time to sacrifice necessitated by progressive growth of subcutaneous tumors” value in [5] (U87MG injected intracranially and subcutaneously) is 10 weeks; in assay [6] (DAOY injected intracranially and subcutaneously), 10 weeks. Also, the “inhibition of subcutaneous tumor growth” value in [5] (U87MG s.c. only, 100 μg/mouse daily i.p. from day 3, after 6 weeks) is reported as “no inhibition of tumor growth”; in assay [6] (DAOY s.c. only, 100 μg/mouse daily i.p. from day 7, after 6 weeks), “no inhibition of tumor growth”. The “Tumor size (mm) Subcutis” value was determined as 19 ± 0.77 mm in assay [5] (U87MG s.c., 100 μg/mouse daily i.p.) and 17 ± 0.84 mm in assay [6] (DAOY s.c., 100 μg/mouse daily i.p.). In addition, in [6] (DAOY injected into brain and subcutis, treatment from day 7, week 4 (FIG. 5)), the “average size of subcutaneous tumors” value was 18 mm^3. Also, the adhesion to vitronectin entry in assay [7] is reported as “Significant inhibition”. For the same compound, the “apoptosis after attachment to vitronectin” value in assay [8] is “significant apoptosis”. In addition, the “adhesion to ECM (adherent cells, OD 600)” value in assay [9] is “detached from vitronectin and tenascin”.
